Measurements: ChEMBL document CHEMBL1201862, “PubChem BioAssay data set” (2004)
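Values below derive from 48-hour exposures of cells grown in 96-well plates, with endpoints linearly interpolated between the two concentrations bracketing the appropriate inhibition level. At the GI50, growth is halved.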 Activity calls are given as the source filed them. Rule as the data show it: active = GI50 up to about 1.1 µM and inactive = higher.

Experiments:
Test in all cases: NCI-60 cell line screen, 48 h
OVCAR-4 = test system: OVCAR-4
EKVX = test system: EKVX
LOX IMVI = test system: LOX IMVI
786-0 = test system: 786-0
SNB-75 = test system: SNB-75
KM12 = test system: KM12
MDA-N = test system: MDA-N
COLO 205 = test system: COLO 205
SW-620 = test system: SW-620
IGROV-1 = test system: IGROV-1
HOP-92 = test system: HOP-92
MDA-MB-231 = test system: MDA-MB-231
NCI-H226 = test system: NCI-H226
OVCAR-8 = test system: OVCAR-8
Hs-578T = test system: Hs-578T
CAKI-1 = test system: CAKI-1
CCRF-CEM = test system: CCRF-CEM
HCT-116 = test system: HCT-116
HCT-15 = test system: HCT-15
SK-MEL-28 = test system: SK-MEL-28
RPMI-8226 = test system: RPMI-8226
MOLT-4 = test system: MOLT-4
HL-60 = test system: HL-60
NCI/ADR-RES = test system: NCI/ADR-RES
HT-29 = test system: HT-29
SK-MEL-5 = test system: SK-MEL-5
ACHN = test system: ACHN
NCI-H522 = test system: NCI-H522
SR = test system: SR
K562 = test system: K562
M14 = test system: M14
NCI-H23 = test system: NCI-H23
SK-OV-3 = test system: SK-OV-3
RXF 393 = test system: RXF 393
SK-MEL-2 = test system: SK-MEL-2
T47D = test system: T47D
UACC-257 = test system: UACC-257
MDA-MB-435 = test system: MDA-MB-435
U-251 = test system: U-251
UACC-62 = test system: UACC-62
SF-295 = test system: SF-295
OVCAR-5 = test system: OVCAR-5
NCI-H460 = test system: NCI-H460
HOP-62 = test system: HOP-62
SN12C = test system: SN12C
SF-268 = test system: SF-268
MCF7 = test system: MCF7
DU-145 = test system: DU-145
PC-3 = test system: PC-3
A549 = test system: A549
A498 = test system: A498
UO-31 = test system: UO-31
BT-549 = test system: BT-549
TK-10 = test system: TK-10
SNB-19 = test system: SNB-19
Malme-3M = test system: Malme-3M
SF-539 = test system: SF-539
OVCAR-3 = test system: OVCAR-3

Measured: GI50

O=C(O)COc1c(Cl)cc(Cl)c2cccnc12
> 100 µM: HCT-15
inactive: OVCAR-4 > 100 µM | EKVX > 100 µM | LOX IMVI > 100 µM | 786-0 > 100 µM | SNB-75 > 100 µM | KM12 > 100 µM | MDA-N > 100 µM | COLO 205 > 100 µM | SW-620 > 100 µM | IGROV-1 96.4 µM | HOP-92 > 100 µM | MDA-MB-231 > 100 µM | NCI-H226 > 100 µM | OVCAR-8 > 100 µM | Hs-578T > 100 µM | CAKI-1 > 100 µM | CCRF-CEM > 100 µM | HCT-116 > 100 µM | SK-MEL-28 > 100 µM | RPMI-8226 > 100 µM | MOLT-4 > 100 µM | HL-60 > 100 µM | NCI/ADR-RES > 100 µM | HT-29 > 100 µM | SK-MEL-5 > 100 µM | ACHN > 100 µM | NCI-H522 > 100 µM | SR > 100 µM | K562 > 100 µM | M14 > 100 µM | NCI-H23 > 100 µM | SK-OV-3 > 100 µM | RXF 393 > 100 µM | SK-MEL-2 > 100 µM | T47D > 100 µM | UACC-257 > 100 µM | MDA-MB-435 > 100 µM | U-251 > 100 µM | UACC-62 > 100 µM | SF-295 > 100 µM | OVCAR-5 > 100 µM | NCI-H460 > 100 µM | HOP-62 > 100 µM | SN12C > 100 µM | SF-268 > 100 µM | MCF7 > 100 µM | DU-145 > 100 µM | PC-3 > 100 µM | A549 > 100 µM | A498 > 100 µM | UO-31 > 100 µM | BT-549 > 100 µM | TK-10 > 100 µM | SNB-19 > 100 µM | Malme-3M > 100 µM | SF-539 > 100 µM | OVCAR-3 > 100 µM

Cc1cc2c(cc1C)[n+]([O-])c(C(F)(F)F)c(C(=O)c1ccccc1)[n+]2[O-]
active: EKVX 0.785 µM | HOP-92 0.167 µM | CAKI-1 0.76 µM | SR 0.527 µM | T47D 0.724 µM | HOP-62 0.299 µM | UO-31 0.484 µM | OVCAR-3 0.227 µM
inactive: LOX IMVI 2.17 µM | 786-0 3.47 µM | SNB-75 3.32 µM | KM12 1.85 µM | MDA-N 3.35 µM | COLO 205 1.82 µM | SW-620 3.72 µM | IGROV-1 1.37 µM | MDA-MB-231 2.3 µM | OVCAR-8 2.93 µM | Hs-578T 2.58 µM | CCRF-CEM 2.02 µM | HCT-116 2.24 µM | SK-MEL-28 4.52 µM | RPMI-8226 1.24 µM | MOLT-4 1.69 µM | HL-60 1.69 µM | NCI/ADR-RES 2.49 µM | HT-29 1.71 µM | SK-MEL-5 1.73 µM | ACHN 2.39 µM | NCI-H522 2.99 µM | K562 2.27 µM | M14 3.73 µM | NCI-H23 2.12 µM | SK-OV-3 4 µM | RXF 393 3.13 µM | SK-MEL-2 4.89 µM | UACC-257 3.02 µM | MDA-MB-435 2.69 µM | U-251 2.67 µM | UACC-62 2.22 µM | SF-295 2.4 µM | OVCAR-5 3.08 µM | NCI-H460 1.26 µM | SN12C 2.74 µM | SF-268 1.91 µM | MCF7 3.27 µM | DU-145 1.62 µM | PC-3 2.09 µM | A549 1.42 µM | A498 4.44 µM | BT-549 5.35 µM | TK-10 3.3 µM | SNB-19 3.56 µM | Malme-3M 2.39 µM | SF-539 5.07 µM
3.24 µM: HCT-15
